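Exposure lasted 48 hours, with cells grown in 96-well plates and compounds tested at five concentrations. Abbreviation: GI50, concentration required for 50% inhibition of growth.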 Activity calls are given as the source filed them. Rule as the data show it: active = GI50 up to about 1.1 µM and inactive = higher.
Tests used:
Experiment in all cases: inhibition of tumour cell growth, NCI panel, 48 h
OVCAR-3 = test system: OVCAR-3
U-251 = test system: U-251
PC-3 = test system: PC-3
HCT-116 = test system: HCT-116
OVCAR-4 = test system: OVCAR-4
LOX IMVI = test system: LOX IMVI
SF-268 = test system: SF-268
HOP-92 = test system: HOP-92
A498 = test system: A498
EKVX = test system: EKVX
CCRF-CEM = test system: CCRF-CEM
SK-MEL-5 = test system: SK-MEL-5
KM12 = test system: KM12
NCI-H23 = test system: NCI-H23
IGROV-1 = test system: IGROV-1
K562 = test system: K562
MDA-MB-231 = test system: MDA-MB-231
HCC 2998 = test system: HCC 2998
MDA-N = test system: MDA-N

| SMILES | GI50 (OVCAR-3) | GI50 (U-251) | GI50 (PC-3) | GI50 (HCT-116) | GI50 (OVCAR-4) | GI50 (LOX IMVI) | GI50 (SF-268) | GI50 (HOP-92) | GI50 (A498) | GI50 (EKVX) | GI50 (CCRF-CEM) | GI50 (SK-MEL-5) | GI50 (KM12) | GI50 (NCI-H23) | GI50 (IGROV-1) | GI50 (K562) | GI50 (MDA-MB-231) | GI50 (HCC 2998) | GI50 (MDA-N) |
| --- | --- | --- | --- | --- | --- | --- | --- | --- | --- | --- | --- | --- | --- | --- | --- | --- | --- | --- | --- |
| N=C(N)N/N=C/c1c(-c2ccc([N+](=O)[O-])cc2)nc2sccn12 | 1.37 µM (inactive) | 1.58 µM (inactive) | 1.59 µM (inactive) | 1.63 µM (inactive) | 1.46 µM (inactive) | 1.86 µM (inactive) | 1.85 µM (inactive) | 1.9 µM (inactive) | 1.73 µM (inactive) | 1.8 µM (inactive) | 0.673 µM (active) | 3.23 µM (inactive) | 0.759 µM (active) | 1.71 µM (inactive) | 8.63 µM (inactive) | 0.973 µM (active) | 1.68 µM (inactive) | 1.43 µM (inactive) |  |
| O=C(CC(O)(C(F)(F)F)C(F)(F)F)c1cccs1 | > 10 µM (inactive) | > 10 µM (inactive) | > 10 µM (inactive) | > 10 µM (inactive) | > 10 µM (inactive) | > 10 µM (inactive) | > 10 µM (inactive) | > 10 µM (inactive) |  |  | > 10 µM (inactive) | > 10 µM (inactive) | > 10 µM (inactive) | > 10 µM (inactive) | > 10 µM (inactive) | > 10 µM (inactive) | > 10 µM (inactive) | > 10 µM (inactive) | > 10 µM (inactive) |
| C=C(CCC(C)C1CCC2C3=C(C(=O)CC21C)C1(C)CCC(=O)[C@@H](C)C1CC3=O)C(C)C(=O)O (stereo not given in full) | 60.1 µM (inactive) | 56.5 µM (inactive) | 33.6 µM (inactive) | 50.9 µM (inactive) | 48.1 µM (inactive) | 17.4 µM (inactive) | > 100 µM (inactive) | 30.8 µM (inactive) | > 100 µM (inactive) | 78.7 µM (inactive) | 22.2 µM (inactive) | 31 µM (inactive) | 85.5 µM (inactive) | 38.9 µM (inactive) | 42.6 µM (inactive) | 18.6 µM (inactive) | 39.3 µM (inactive) | 98.2 µM (inactive) |  |
| O=C1NC2(CCN(CCCC3(c4ccc(F)cc4)OCCO3)CC2)Oc2ccccc21 |  | > 100 µM (inactive) |  | > 100 µM (inactive) | > 100 µM (inactive) | > 100 µM (inactive) | > 100 µM (inactive) | 23.7 µM (inactive) | 21.3 µM (inactive) | 39.4 µM (inactive) | > 100 µM (inactive) | 69.5 µM (inactive) | > 100 µM (inactive) | > 100 µM (inactive) | > 100 µM (inactive) | 64.4 µM (inactive) | > 100 µM (inactive) | > 100 µM (inactive) |  |
| O=c1[nH]c2nc3ccccc3c(=O)n2/c1=C/c1ccc(Cl)cc1 | 24.3 µM (inactive) | 28.2 µM (inactive) | > 100 µM (inactive) | 36 µM (inactive) | > 100 µM (inactive) | 30.4 µM (inactive) | 26.9 µM (inactive) | 27.4 µM (inactive) |  |  | 37 µM (inactive) |  | 18.4 µM (inactive) | 25.8 µM (inactive) |  |  | 58.1 µM (inactive) | 21.7 µM (inactive) | 22.2 µM (inactive) |
| CNC1C(O)C(NC)C2OC3(O)C(=O)CC(C)OC3OC2C1O (stereo not given) | > 100 µM (inactive) | > 100 µM (inactive) | > 100 µM (inactive) | > 100 µM (inactive) | > 100 µM (inactive) | > 100 µM (inactive) | > 100 µM (inactive) | > 100 µM (inactive) |  | > 100 µM (inactive) | > 100 µM (inactive) | > 100 µM (inactive) | > 100 µM (inactive) | > 100 µM (inactive) | > 100 µM (inactive) | > 100 µM (inactive) | > 100 µM (inactive) | > 100 µM (inactive) | > 100 µM (inactive) |
| O=C1c2ccccc2-c2nc(-c3cccnc3)cc3c2c1nc1ccccc13 | 11.6 µM (inactive) | > 100 µM (inactive) | > 100 µM (inactive) | > 100 µM (inactive) | > 100 µM (inactive) | 40.3 µM (inactive) | > 100 µM (inactive) | > 100 µM (inactive) |  | > 100 µM (inactive) | 26.5 µM (inactive) |  | > 10 µM (inactive) | 88.3 µM (inactive) | 25.5 µM (inactive) | > 100 µM (inactive) | > 100 µM (inactive) | > 100 µM (inactive) |  |
| CC[C@H](CCCC[C@H]1CC[C@@H]2CC(=O)C[C@H]12)OC | 85.3 µM (inactive) | 95.5 µM (inactive) |  | 52.2 µM (inactive) | > 100 µM (inactive) | > 100 µM (inactive) |  | 27.4 µM (inactive) |  | 60.1 µM (inactive) | 60.7 µM (inactive) | 31.4 µM (inactive) | > 100 µM (inactive) | 35.5 µM (inactive) | > 100 µM (inactive) | 13 µM (inactive) | > 100 µM (inactive) | > 100 µM (inactive) |  |
| COC(=O)C1=C(O)C(C(=O)OC)[C@]2(O)[C@@H](C(=O)OC)[C@H]1[C@H](C)[C@@H](c1ccccc1)[C@@H]2C(=O)OC (stereo not given in full) | 54 µM (inactive) | > 100 µM (inactive) | 61.5 µM (inactive) | 60.3 µM (inactive) | 80 µM (inactive) | 53.7 µM (inactive) | 70.8 µM (inactive) |  |  | 55.7 µM (inactive) | 23.2 µM (inactive) | 36.2 µM (inactive) | > 100 µM (inactive) | 44.4 µM (inactive) | 16.8 µM (inactive) | 57.4 µM (inactive) | > 100 µM (inactive) |  | 29.2 µM (inactive) |
| CCOc1nc(N)nc(C)c1/N=N/c1ccc(Cl)cc1 | > 100 µM (inactive) | > 100 µM (inactive) | 82.8 µM (inactive) | > 100 µM (inactive) | > 100 µM (inactive) | > 100 µM (inactive) | > 100 µM (inactive) | 13.7 µM (inactive) |  | 51.6 µM (inactive) | 41.3 µM (inactive) | 0.649 µM (active) | > 100 µM (inactive) | > 100 µM (inactive) | > 100 µM (inactive) | 48.5 µM (inactive) | > 100 µM (inactive) |  |  |
| CC12C=CC(C)(C3C(=O)C4C(C(=O)C31)C1(C)C=CC4(C)[S+]1[O-])[S+]2[O-] (stereo not given) | > 100 µM (inactive) |  | > 100 µM (inactive) |  |  | 81.5 µM (inactive) | > 100 µM (inactive) |  |  | > 100 µM (inactive) |  | 21.9 µM (inactive) | > 100 µM (inactive) | > 100 µM (inactive) | 83.9 µM (inactive) |  | > 100 µM (inactive) | > 100 µM (inactive) | > 100 µM (inactive) |
| CC1(C)N=C(N)N=C(N)N1c1ccc(OCC(=O)Nc2cccc(S(=O)(=O)F)c2)c(Cl)c1 | 18.5 µM (inactive) | 13.6 µM (inactive) | 1.54 µM (inactive) | 12.6 µM (inactive) | > 100 µM (inactive) | 4.9 µM (inactive) | 4.78 µM (inactive) | 2.25 µM (inactive) |  |  | 5.37 µM (inactive) | 3.56 µM (inactive) | 17.7 µM (inactive) | 4.95 µM (inactive) | 7 µM (inactive) | 1.66 µM (inactive) | > 31.6 µM (inactive) | 19.1 µM (inactive) |  |
| Cc1ccc(S(=O)(=O)c2c(O)c3ccc(O)c(C)c3oc2=O)cc1 | > 100 µM (inactive) | > 100 µM (inactive) | > 100 µM (inactive) | > 100 µM (inactive) | > 100 µM (inactive) |  | > 100 µM (inactive) | > 100 µM (inactive) |  | > 100 µM (inactive) | > 100 µM (inactive) | > 100 µM (inactive) | > 100 µM (inactive) | > 100 µM (inactive) | > 100 µM (inactive) | > 100 µM (inactive) | > 100 µM (inactive) | > 100 µM (inactive) | > 100 µM (inactive) |
| O=C(NCCCN(CCCCN(CCCNC(=O)C(F)(F)F)CCCc1ccccc1)CCCc1ccccc1)C(F)(F)F |  | 1.6 µM (inactive) |  | 2.47 µM (inactive) | 5.78 µM (inactive) | 1.85 µM (inactive) | 1.63 µM (inactive) | 1.62 µM (inactive) | 2.21 µM (inactive) | 1.68 µM (inactive) | 4.63 µM (inactive) | 1.69 µM (inactive) | 1.95 µM (inactive) | 12.7 µM (inactive) | 1.83 µM (inactive) | 2.87 µM (inactive) | 1.63 µM (inactive) | 1.78 µM (inactive) | 1.65 µM (inactive) |
| O=c1ccc(-c2ccc(-n3ccnc3)cc2)nn1CCO | > 100 µM (inactive) | > 100 µM (inactive) | > 100 µM (inactive) | > 100 µM (inactive) | > 100 µM (inactive) |  | > 100 µM (inactive) | > 100 µM (inactive) | > 100 µM (inactive) | 46.6 µM (inactive) | > 100 µM (inactive) | > 100 µM (inactive) | > 100 µM (inactive) | > 100 µM (inactive) | > 100 µM (inactive) |  |  | > 100 µM (inactive) | > 100 µM (inactive) |
| CNc1ccc2c(c1)Cc1ccccc1-2 | 26.8 µM (inactive) | 34.4 µM (inactive) | 32.7 µM (inactive) | 56.2 µM (inactive) | 26.5 µM (inactive) | 50.9 µM (inactive) | 44 µM (inactive) | 21 µM (inactive) | 20 µM (inactive) | 12.7 µM (inactive) | 59.2 µM (inactive) | 26.8 µM (inactive) | 36.1 µM (inactive) | 75.2 µM (inactive) | 34.5 µM (inactive) | 31.1 µM (inactive) | 55.8 µM (inactive) | 30.6 µM (inactive) |  |
